Assay results published in the supplement of paper PMC11281043.

Assays:
Danio rerio embryo/larva [1] = assay: BMC mortality; max tested concentration (log10 uM): 2; higher = less potent; settings: exposure: 6-8 hpf to 5 dpf, scored at 6 dpf
Description: (§1)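 Zebrafish embryos (with chorion) were exposed from 6-8 hpf to each PFAS (8-point half-log series, top concentration up to 100 uM, 0.4% DMSO, sealed plates, 26 C; n = 6 embryos per concentration), rinsed at 5 dpf and scored at 6 dpf by two blinded observers for mortality, hatching and malformations. Endpoint scores are the % of living larvae affected (dead larvae excluded; […]). Curves were fitted with tcpl (cutoff 16%), and the BMC is the concentration at a benchmark response of 21.6%.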

Danio rerio embryo/larva [2] = assay: BMC any abnormality; max tested concentration (log10 uM): 2; higher = less potent; settings: exposure: 6-8 hpf to 5 dpf, scored at 6 dpf
Description: as §1

Danio rerio embryo/larva [3] = assay: max % larvae with any abnormality across tested concentrations; max tested concentration (log10 uM): 2; higher = more toxic; extreme values may be limits of the assay; settings: exposure: 6-8 hpf to 5 dpf, scored at 6 dpf
Danio rerio embryo/larva [4] = assay: max % larvae unhatched across tested concentrations; max tested concentration (log10 uM): 2; higher = more toxic; settings: exposure: 6-8 hpf to 5 dpf, scored at 6 dpf
Danio rerio embryo/larva [5] = assay: max % larvae dead across tested concentrations; max tested concentration (log10 uM): 2; higher = more toxic; extreme values may be limits of the assay; settings: exposure: 6-8 hpf to 5 dpf, scored at 6 dpf
Danio rerio embryo/larva [6] = assay: BMC swim bladder non-inflation; higher = less potent; settings: exposure: 6-8 hpf to 5 dpf, scored at 6 dpf
Description: as §1

Danio rerio embryo/larva [7] = assay: BMC edema; higher = less potent; settings: exposure: 6-8 hpf to 5 dpf, scored at 6 dpf
Description: as §1

Danio rerio embryo/larva [8] = assay: BMC craniofacial defects; higher = less potent; settings: max tested concentration (log10 uM): 2; exposure: 6-8 hpf to 5 dpf, scored at 6 dpf
Description: as §1

Danio rerio embryo/larva [9] = assay: BMC abnormal position; higher = less potent; settings: exposure: 6-8 hpf to 5 dpf, scored at 6 dpf
Description: as §1

[10] = max tested concentration (log10 uM): 1
[11] = max tested concentration (log10 uM): 2
[12] = max tested concentration (log10 uM): 1.47712

Structure (SMILES): C[N+](C)(C)CCCNS(=O)(=O)C(F)(F)C(F)(F)C(F)(F)C(F)(F)C(F)(F)C(F)(F)C(F)(F)C(F)(F)F
- BMC mortality (Danio rerio embryo/larva [1]): 19.8 µM
- BMC any abnormality (Danio rerio embryo/larva [2]): 22.3 µM
- max % larvae (Danio rerio embryo/larva [3]): 100%
- max % larvae unhatched across tested concentrations (Danio rerio embryo/larva [4]): 0%
- max % larvae dead across tested concentrations (Danio rerio embryo/larva [5]): 100%

Structure (SMILES): C=CC(=O)OCC(F)(F)C(F)(F)C(F)(F)COC(=O)C=C [1H,1H,5H,5H-Perfluoro-1,5-pentanediol diacrylate]
- BMC mortality (Danio rerio embryo/larva [1]): 8.77 µM
- BMC any abnormality (Danio rerio embryo/larva [2]): 7.62 µM
- max % larvae (Danio rerio embryo/larva [3]): 100%
- max % larvae unhatched across tested concentrations (Danio rerio embryo/larva [4]): 0%
- max % larvae dead across tested concentrations (Danio rerio embryo/larva [5]): 100%

Structure (SMILES): C=CC(=O)OCC(F)(F)C(F)(F)C(F)(F)C(F)(F)COC(=O)C=C [1H,1H,6H,6H-Perfluorohexane-1,6-diol diacrylate]
- BMC mortality (Danio rerio embryo/larva [1]): 8.28 µM
- BMC any abnormality (Danio rerio embryo/larva [2]): 1.52 µM
- max % larvae (Danio rerio embryo/larva [3]): 100%
- max % larvae unhatched across tested concentrations (Danio rerio embryo/larva [4]): 0%
- BMC swim bladder non-inflation (Danio rerio embryo/larva [6]; [10]): 2.81 µM
- BMC edema (Danio rerio embryo/larva [7]; [10]): 8.94 µM
- max % larvae dead across tested concentrations (Danio rerio embryo/larva [5]): 100%

Structure (SMILES): OCC(F)(F)C(F)(F)C(F)(F)C(F)(F)C(F)(F)C(F)(F)CO [1H,1H,8H,8H-Perfluorooctane-1,8-diol]
- BMC craniofacial defects (Danio rerio embryo/larva [8]): 91 µM
- BMC any abnormality (Danio rerio embryo/larva [2]): 41.3 µM
- max % larvae (Danio rerio embryo/larva [3]): 91.7%
- max % larvae unhatched across tested concentrations (Danio rerio embryo/larva [4]): 0%
- BMC swim bladder non-inflation (Danio rerio embryo/larva [6]; [11]): 10.4 µM
- BMC edema (Danio rerio embryo/larva [7]; [11]): 50.7 µM
- max % larvae dead across tested concentrations (Danio rerio embryo/larva [5]): 0%

Structure (SMILES): OCC(F)(F)C(F)(F)C(F)(F)C(F)(F)C(F)(F)C(F)(F)C(F)(F)C(F)(F)CO [1H,1H,10H,10H-Perfluorodecane-1,10-diol]
- BMC mortality (Danio rerio embryo/larva [1]): 19.5 µM
- BMC any abnormality (Danio rerio embryo/larva [2]): 4.08 µM
- max % larvae (Danio rerio embryo/larva [3]): 100%
- max % larvae unhatched across tested concentrations (Danio rerio embryo/larva [4]): 0%
- BMC swim bladder non-inflation (Danio rerio embryo/larva [6]; [10]): 3.47 µM
- max % larvae dead across tested concentrations (Danio rerio embryo/larva [5]): 100%

Structure (SMILES): OCCC(F)(F)C(F)(F)C(F)(F)C(F)(F)C(F)(F)C(F)(F)F [2-(Perfluorohexyl)ethanol]
- BMC craniofacial defects (Danio rerio embryo/larva [8]): 27.9 µM
- BMC any abnormality (Danio rerio embryo/larva [2]): 10.4 µM
- max % larvae (Danio rerio embryo/larva [3]): 89.6%
- max % larvae unhatched across tested concentrations (Danio rerio embryo/larva [4]): 0%
- BMC swim bladder non-inflation (Danio rerio embryo/larva [6]; [11]): 26.2 µM
- BMC edema (Danio rerio embryo/larva [7]; [11]): 3.37 µM
- max % larvae dead across tested concentrations (Danio rerio embryo/larva [5]): 8.33%

Structure (SMILES): OCCC(F)(F)C(F)(F)C(F)(F)C(F)(F)C(F)(F)C(F)(F)C(F)(F)C(F)(F)F [2-(Perfluorooctyl)ethanol]
- BMC mortality (Danio rerio embryo/larva [1]): 89 µM
- max % larvae (Danio rerio embryo/larva [3]): 58.3%
- max % larvae unhatched across tested concentrations (Danio rerio embryo/larva [4]): 0%
- max % larvae dead across tested concentrations (Danio rerio embryo/larva [5]): 25%

Structure (SMILES): O=C(O)CCC(F)(F)C(F)(F)C(F)(F)C(F)(F)C(F)(F)F [2H,2H,3H,3H-Perfluorooctanoic acid]
- BMC mortality (Danio rerio embryo/larva [1]): 24.8 µM
- BMC abnormal position (Danio rerio embryo/larva [9]; [12]): 12.2 µM
- BMC any abnormality (Danio rerio embryo/larva [2]): 8.77 µM
- max % larvae (Danio rerio embryo/larva [3]): 100%
- max % larvae unhatched across tested concentrations (Danio rerio embryo/larva [4]): 0%
- BMC swim bladder non-inflation (Danio rerio embryo/larva [6]; [12]): 9.28 µM
- BMC edema (Danio rerio embryo/larva [7]; [12]): 9.38 µM
- max % larvae dead across tested concentrations (Danio rerio embryo/larva [5]): 100%

Structure (SMILES): O=C(O)CCC(F)(F)C(F)(F)C(F)(F)C(F)(F)C(F)(F)C(F)(F)F [3-(Perfluorohexyl)propanoic acid]
- BMC mortality (Danio rerio embryo/larva [1]): 19.5 µM
- BMC any abnormality (Danio rerio embryo/larva [2]): 8.2 µM
- max % larvae (Danio rerio embryo/larva [3]): 100%
- max % larvae unhatched across tested concentrations (Danio rerio embryo/larva [4]): 0%
- BMC edema (Danio rerio embryo/larva [7]; [10]): 9.01 µM
- max % larvae dead across tested concentrations (Danio rerio embryo/larva [5]): 100%

Structure (SMILES): OCCCCC(F)(F)C(F)(F)C(F)(F)C(F)(F)F [4:4 Fluorotelomer alcohol]
- BMC mortality (Danio rerio embryo/larva [1]): 86.5 µM
- BMC craniofacial defects (Danio rerio embryo/larva [8]): 34.7 µM
- BMC any abnormality (Danio rerio embryo/larva [2]): 25.5 µM
- max % larvae (Danio rerio embryo/larva [3]): 97.9%
- max % larvae unhatched across tested concentrations (Danio rerio embryo/larva [4]): 0%
- BMC swim bladder non-inflation (Danio rerio embryo/larva [6]; [11]): 27.1 µM
- BMC edema (Danio rerio embryo/larva [7]; [11]): 25.8 µM
- max % larvae dead across tested concentrations (Danio rerio embryo/larva [5]): 41.7%

Structure (SMILES): O=C(O)C(F)(F)C(F)(F)C(F)(F)C(F)(F)C(F)(F)C(F)(F)C(F)(F)C(F)(F)Cl [9-Chloro-perfluorononanoic acid]
- BMC mortality (Danio rerio embryo/larva [1]): 31.1 µM
- BMC abnormal position (Danio rerio embryo/larva [9]; [11]): 80.3 µM
- BMC craniofacial defects (Danio rerio embryo/larva [8]): 31.1 µM
- BMC any abnormality (Danio rerio embryo/larva [2]): 8.75 µM
- max % larvae (Danio rerio embryo/larva [3]): 100%
- max % larvae unhatched across tested concentrations (Danio rerio embryo/larva [4]): 0%
- BMC swim bladder non-inflation (Danio rerio embryo/larva [6]; [11]): 6.38 µM
- BMC edema (Danio rerio embryo/larva [7]; [11]): 17.5 µM
- max % larvae dead across tested concentrations (Danio rerio embryo/larva [5]): 100%

Structure (SMILES): O=C(O)C(F)(F)C(F)(F)C(F)(F)C(F)(F)C(F)(F)C(F)(F)C(F)(F)C(F)(F)C(F)(F)C(F)F [11-H-Perfluoroundecanoic acid]
- BMC mortality (Danio rerio embryo/larva [1]): 11.2 µM
- BMC any abnormality (Danio rerio embryo/larva [2]): 12.9 µM
- max % larvae (Danio rerio embryo/larva [3]): 100%
- max % larvae unhatched across tested concentrations (Danio rerio embryo/larva [4]): 0%
- BMC edema (Danio rerio embryo/larva [7]; [12]): 12.6 µM
- max % larvae dead across tested concentrations (Danio rerio embryo/larva [5]): 100%

Structure (SMILES): O=P(O)(O)CCC(F)(F)C(F)(F)C(F)(F)C(F)(F)C(F)(F)C(F)(F)C(F)(F)C(F)(F)F [((Perfluorooctyl)ethyl)phosphonic acid]
- BMC mortality (Danio rerio embryo/larva [1]): 10.4 µM
- BMC abnormal position (Danio rerio embryo/larva [9]; [11]): 63.6 µM
- BMC any abnormality (Danio rerio embryo/larva [2]): 0.578 µM
- max % larvae (Danio rerio embryo/larva [3]): 100%
- max % larvae unhatched across tested concentrations (Danio rerio embryo/larva [4]): 0%
- BMC swim bladder non-inflation (Danio rerio embryo/larva [6]; [11]): 0.92 µM
- BMC edema (Danio rerio embryo/larva [7]; [11]): 1.37 µM
- max % larvae dead across tested concentrations (Danio rerio embryo/larva [5]): 100%

Structure (SMILES): CC(C)(C)C(=O)CC(=O)C(F)(F)C(F)(F)C(F)(F)F [(Heptafluorobutanoyl)pivaloylmethane]
- BMC mortality (Danio rerio embryo/larva [1]): 31.2 µM
- BMC abnormal position (Danio rerio embryo/larva [9]; [11]): 33.1 µM
- BMC craniofacial defects (Danio rerio embryo/larva [8]): 26.6 µM
- BMC any abnormality (Danio rerio embryo/larva [2]): 23.4 µM
- max % larvae (Danio rerio embryo/larva [3]): 100%
- max % larvae unhatched across tested concentrations (Danio rerio embryo/larva [4]): 0%
- BMC swim bladder non-inflation (Danio rerio embryo/larva [6]; [11]): 23 µM
- BMC edema (Danio rerio embryo/larva [7]; [11]): 25.6 µM
- max % larvae dead across tested concentrations (Danio rerio embryo/larva [5]): 58.3%

Structure (SMILES): O=C(CC(=O)C(F)(F)C(F)(F)C(F)(F)F)c1cccs1 [(Perfluorobutyryl)-2-thenoylmethane]
- BMC mortality (Danio rerio embryo/larva [1]): 6.44 µM
- BMC any abnormality (Danio rerio embryo/larva [2]): 3.11 µM
- max % larvae (Danio rerio embryo/larva [3]): 100%
- max % larvae unhatched across tested concentrations (Danio rerio embryo/larva [4]): 0%
- max % larvae dead across tested concentrations (Danio rerio embryo/larva [5]): 100%

Structure (SMILES): CCNS(=O)(=O)C(F)(F)C(F)(F)C(F)(F)C(F)(F)C(F)(F)C(F)(F)C(F)(F)C(F)(F)F [N-Ethylperfluorooctane sulfonamide]
- BMC mortality (Danio rerio embryo/larva [1]): 19.5 µM
- BMC any abnormality (Danio rerio embryo/larva [2]): 2.37 µM
- max % larvae (Danio rerio embryo/larva [3]): 100%
- max % larvae unhatched across tested concentrations (Danio rerio embryo/larva [4]): 0%
- BMC swim bladder non-inflation (Danio rerio embryo/larva [6]; [10]): 3.13 µM
- BMC edema (Danio rerio embryo/larva [7]; [10]): 2.88 µM
- max % larvae dead across tested concentrations (Danio rerio embryo/larva [5]): 100%
